Laboratory results as given in US11278549B2, “Method of treating obesity” (McMaster University, priority 2013, dated 2022).
Where a name gives a salt, the structure may show the parent alone.

Tests used:
5-HT2A = molecular target: T1, 5-HT2A (Mus musculus, UniProt P35363); experiment: Fluo-4 Ca2+ signals in brown adipocytes; assay type: cell-based; details: for Ca2+ levels: brown adipocytes stained with Fluo-4, agonist treatment; for 5-HT induced Ca2+ transients: pre-treatment with antagonist
T1 construct: endogenous in cells; host or cells: immortalized murine brown adipocytes (differentiated)
T1 sequence (P35363 whole entry): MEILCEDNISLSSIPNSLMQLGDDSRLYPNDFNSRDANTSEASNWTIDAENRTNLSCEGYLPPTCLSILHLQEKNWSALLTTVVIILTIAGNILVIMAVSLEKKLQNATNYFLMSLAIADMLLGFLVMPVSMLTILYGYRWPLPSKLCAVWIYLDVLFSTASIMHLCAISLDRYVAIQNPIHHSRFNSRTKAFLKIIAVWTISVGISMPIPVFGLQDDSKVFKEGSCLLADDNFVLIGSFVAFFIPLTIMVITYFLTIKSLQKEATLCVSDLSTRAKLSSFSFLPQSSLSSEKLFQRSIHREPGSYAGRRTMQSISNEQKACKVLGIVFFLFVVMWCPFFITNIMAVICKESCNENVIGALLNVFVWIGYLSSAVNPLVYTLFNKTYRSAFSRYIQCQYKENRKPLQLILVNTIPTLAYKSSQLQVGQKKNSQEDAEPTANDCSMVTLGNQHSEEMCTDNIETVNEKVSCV
Text: Immortalized BA progenitor cells obtained from 5-HT2A KO (B6; 129-5-HT2Atm1a/Nju from Nanjing Biomedical Research Institute of Nanjing University) mice were differentiated for 9 days to produce mature BAs. Cells were then stained with fluo-4 and treated with different concentrations of 5-HT to obtain a dose response curve. Values from BAs expressing 5-HT2A used for other experiments were plotted as a WT comparison.

HFD-fed C57Bl6 mice [1] = experiment: Daily LP533401 treatment of HFD-fed C57Bl6 mice (prevention of obesity); assay type: in vivo
Text: Animals. All experiments were approved by the McMaster University animal ethics committee and conducted under the Canadian guidelines for animal research. Tph1^−/− mice on C57BL/6 background were originally produced by gene mutation as described by Côté et al. (Proc Natl Acad Sci USA 100, 13525-13530 (2003)). Heterozygous (Tph1^+/−) mice were interbred to generate Tph1^−/− and Tph1^+/+ littermates. Starting at 8 weeks of age, male Tph1^−/− and Tph1^+/+ mice received either a chow (17% kcal fat; Diet 8640, Harlan Teklad, Madison, Wis.) or high-fat diet (HFD, 45% kcal fat, D12451, Research Diets; New Brunswick, N.J.) and water ad libitum for 12 weeks. For the initial chemical inhibitor studies, male C57BL/6 mice were purchased from Jackson's Laboratory at 6 weeks of age and immediately placed on the HFD described above. Starting at 8 weeks of age HFD-fed C57Bl6 mice received a daily intraperitoneal injection of the Tph1 inhibitor, LP533401 (25 mg/kg body weight, Dalton Pharma Services, Canada) dissolved in DMSO and diluted with water (5% DMSO final concentration) or equal volume of vehicle (5% DMSO in water). […] All mice were housed in SPF micro-isolator cages that were located in a room maintained at a constant temperature of 23° C. on a 12 h light/dark cycle with lights on at 0700.
(§1) Metabolic monitoring was performed in a Comprehensive Lab Animal Monitoring System (CLAMS, Columbus Instruments, OH, USA) as previously described (Sachithanandan, N., et al. Hepatology 52, 1632-1642 (2010); O'Neill, H. M., et al. Proc Natl Acad Sci 108, 16092-16097 (2011)). CL-316,243 challenge experiments were also performed using the CLAMS equipment, as described. All metabolic monitoring occurred in a room kept between 26 and 28° C. Insulin and glucose tolerance tests were performed after 16 weeks of the diet intervention in Tph1^−/− mice experiments, and after 6-10 weeks of HFD weeks in LP533401 injection experiments as previously described (Steinberg, G. R., et al. J Biol Chem 285, 37198-37209 (2010)). For serum insulin and cytokine measurements, fasting and fed blood samples were collected by retro-orbital bleed between weeks 16-18 using a non-heparinized capillary tube and insulin, adiponectin, leptin were measured as described (Watt, M. J., et al. Nature medicine 12, 541-548 (2006)). Serum cytokines (MCP-1, TNFα, and IL-6) were measured using a multiplexed bead-based immunoassay (BD Biosciences, San Jose, Calif., USA) following the manufacturer's instructions.
In vivo glucose uptake and body composition: ^18F-Fluorodeoxyglucose (FDG) was synthesized at McMaster University by the nucleophilic substitution method using an FDG synthesizing instrument (GE Healthcare, Milwaukee, Wis., USA) and a cyclotron (Siemans 20-30 gb). After an 8 h fast, mice were injected with insulin (0.5 U/kg) diluted in 0.9% physiological saline and 5 minutes later received an intravenous administration of FDG (10.8±1.2 MBq/g). After injection, the mice were maintained under conscious conditions and warmed using a heating pad. At 28 minutes post saline or insulin injection mice were anaesthetized with isoflorane and at 30 minutes small-animal positron emission tomography (PET, Philip Mosaic, Andover, Mass.) and micro-computed tomography (CT) (Gamma Medica-Ideas Xspect System, NorthRidge, Calif.) imaging were performed using an acquisition time of 15 min for PET, followed by CT for 5 minutes. Images were reconstructed using 3D-RAMLA algorithm, with no attenuation correction and no correction for partial-volume effects of the tomograph as previously described^31. Quantification was performed by Region-of-interest (ROI) analysis using Amide Research Workplace software and FDG-tissue uptake calculated using the mean value of standard uptake values (SUV) as described (Palanivel R, Diabetologia. 55(11):3083-93 (2012)). […]

HFD-fed C57Bl6 mice [2] = experiment: Metabolic cages and 18FDG-PET/CT of LP533401-treated HFD-fed mice; assay type: in vivo
Protocol: as §1
In vivo glucose uptake and body composition: ^18F-Fluorodeoxyglucose (FDG) was synthesized at McMaster University by the nucleophilic substitution method using an FDG synthesizing instrument (GE Healthcare, Milwaukee, Wis., USA) and a cyclotron (Siemans 20-30 gb). After an 8 h fast, mice were injected with insulin (0.5 U/kg) diluted in 0.9% physiological saline and 5 minutes later received an intravenous administration of FDG (10.8±1.2 MBq/g). After injection, the mice were maintained under conscious conditions and warmed using a heating pad. At 28 minutes post saline or insulin injection mice were anaesthetized with isoflorane and at 30 minutes small-animal positron emission tomography (PET, Philip Mosaic, Andover, Mass.) and micro-computed tomography (CT) (Gamma Medica-Ideas Xspect System, NorthRidge, Calif.) imaging were performed using an acquisition time of 15 min for PET, followed by CT for 5 minutes. Images were reconstructed using 3D-RAMLA algorithm, with no attenuation correction and no correction for partial-volume effects of the tomograph as previously described^31. Quantification was performed by Region-of-interest (ROI) analysis using Amide Research Workplace software and FDG-tissue uptake calculated using the mean value of standard uptake values (SUV) as described (Palanivel R, Diabetologia. 55(11):3083-93 (2012)). Analysis of total body fat composition were determined by using Amira software (Visage Imaging) and the mean value of voxels of segmented adipose were calculated and expressed relative to total body mass.
To examine the mechanisms contributing to weight loss in LP533401-treated mice, HFD-fed mice were placed in metabolic cages after 12 days of treatment before any change in body mass was evident in groups (Vehicle: 29.4±0.58 g vs. LP533401:28.9±0.63 g).

[3] = test system: HFD-fed Ucp1+/+ and Ucp1-/- mice; experiment: LP533401 in HFD-fed Ucp1+/+ and Ucp1-/- mice at thermoneutrality; assay type: in vivo
Protocol: Ucp1 heterozygous mice were acquired from Jackson Laboratories and bred to produce UCP1-null (Ucp1^−/−) and wild-type (Ucp1^+/+) littermates. In order to prevent thermal stress, mice in this colony were bred and housed in a room maintained at 30° C. All testing except for the CL-316,243 challenge occurred at this temperature.
as §1
In order to establish whether the clinical benefits of Tph1 inhibition (weight loss and improvements in insulin sensitivity) are derived from increased thermogenesis mediated by UCP1, daily injections of LP533401 were performed using UCP1-null (Ucp1^−/−) and wild-type littermates (Ucp1^+/+) fed a HFD and housed under thermoneutral conditions (30° C.). […] Thus, the clinical benefits of Tph1 inhibition require UCP1 mediated thermogenesis.

UCP1 = experiment: Ucp1 promoter activity, Ucp1 mRNA and UCP1 protein in brown adipocytes; assay type: cell-based, mouse
Protocol: Using RNA-Seq, cultured human brown and beige adipocytes were interrogated for 5-HT receptor mRNA expression. Immortalized murine brown adipocytes (BAs) were treated with or without the selective 5-HT reuptake inhibitor (SSRI), paroxetine (250 nM). Subsequent studies were conducted with and without 5-HT2A agonists (1 pM-10 uM TCB-2, 1 pM-10 uM AL-34662, and 1 pM-10 uM NBOH-2C-CN) and 5-HT2A antagonists (100 fM-100 pM MDL-100907, 100 pM-10 uM xylamidine tosylate, 1 nM ketanserin, 10 nM altanserin, 100 fM-100 pM EMD-281,014, and 100 pM-10 uM sarpogrelate hydrochloride).
BA progenitors were isolated and immortalized from WT and serotonin transporter (SERT; Gene: Slc6a4) KO mice. These cells were then differentiated for 7 days to obtain mature BAs. BAs were then treated with different doses of 5-HT for 4 hours. RNA was isolated and quantified using RT-qPCR with probes specific for Slc6a4, Ucp1 and PPIA.
BA progenitors were isolated from mice expressing a transgene where the luciferase gene is driven by the Ucp1 promoter (i.e. Ucp1-Luc2 mice; a.k.a. ThermoMouse; Jackson Laboratories). Upon 9 days of differentiation, these BAs were treated for 4 hours with different doses of 5-HT. Because in vitro there is not a continuous supply of 5-HT as there is in vivo, cells were treated with paroxetine to inhibit the uptake and consequent degradation of 5-HT, and to observe 5-HT receptor specific effects. These cells were then lysed, incubated with a luciferin assay cocktail, and the light generated quantified on a microplate reader.

5-HT receptor = experiment: Isoproterenol-induced lipolysis (FFA release) in immortalized BAT cells; assay type: cell-based, mouse; details: co-treatment with the antagonist (3 μM), n=2
Protocol: Briefly, confluent cells were placed in induction media (0.5 mM IBMX; 0.25 mM indomethacin; 2 μg/ml dexamethasone; 1 nM T3, 20 nM insulin) for two days and subsequently maintained on differentiation media (1 nM T3, 20 nM insulin). All experiments were performed on cultures 6-8 days post-induction. Unless otherwise indicated, cells were rinsed with PBS and media was changed to HEPES-buffered Krebs Ringer buffer (HKRB)+1% BSA. Where indicated, BAs were treated with serotonin for 30 min (100 μM; Sigma) followed by isoproterenol (1 nM, Sigma) for 4 h. The serotonin receptor antagonist, methysergide (3 μM) was used 45 min prior treatment with serotonin as above.

[4] = HFD-fed C57Bl6 mice, Tph1 inhibitor 25 mg/kg daily i.p., values ± SEM, n = 7-8

Compound: C[C@H](N)Cn1ncc2ccc(O)cc21 [AL-34662]
- Ca2+ levels (5-HT2A): increased

Compound: N#Cc1c[nH]c2c(C(=O)N3CCN(CCc4ccc(F)cc4)CC3)cccc12 [EMD-281,014, pruvanserin]
- 5-HT induced Ca2+ transients (5-HT2A): attenuated

Compound: Nc1nc(OC(c2ccc(-c3cccc(F)c3)cc2)C(F)(F)F)cc(-c2ccc(C[C@H](N)C(=O)O)cc2)n1 (stereo partly drawn) [LP533401, (2S)-2-amino-3-(4-(2-amino-6-(2,2,2-trifluoro-1-(3′-fluoro-[1,1′-biphenyl]-4-yl)ethoxy)pyrimidin-4-yl)phenyl)propanoic acid]
- accumulation of body fat (HFD-fed C57Bl6 mice [1]; 25 mg/kg i.p., versus vehicle): lower accumulation
- circulating serotonin levels (HFD-fed C57Bl6 mice [1]; 25 mg/kg i.p., versus vehicle): reduced
- glucose homeostasis (HFD-fed C57Bl6 mice [1]; 25 mg/kg i.p., versus vehicle): improvements
- insulin sensitivity (HFD-fed C57Bl6 mice [1]; 25 mg/kg i.p., versus vehicle): increased
- liver size (HFD-fed C57Bl6 mice [1]; 25 mg/kg i.p., versus vehicle): reductions
- weight gain (HFD-fed C57Bl6 mice [1]; 25 mg/kg i.p., versus vehicle (1-2 grams per week)): suppressed
- Tissue weight, Brown Adipose Tissue (HFD-fed C57Bl6 mice [1]; [4]): 153 ± 8.4 mg
- Tissue weight, Epididymal Fat Pad (HFD-fed C57Bl6 mice [1]; [4]): 1157 ± 121 mg
- Tissue weight, Inguinal Fat Pad (HFD-fed C57Bl6 mice [1]; [4]): 117 ± 16 mg
- Tissue weight, Retroperitoneal Fat Pad (HFD-fed C57Bl6 mice [1]; [4]): 265 ± 29.9 mg
- FDG uptake in BAT (HFD-fed C57Bl6 mice [2]; 18FDG-PET/CT): increased
- FDG uptake into eWAT (HFD-fed C57Bl6 mice [2]; PET, HFD-fed C57Bl6 mice): increased
- body mass (HFD-fed C57Bl6 mice [2]; after 12 days of treatment, before any change in body mass): 28.9 ± 0.63 g
- oxygen consumption (HFD-fed C57Bl6 mice [2]; dark and light cycles, after 12 days of treatment): increased
- browning of eWAT (HFD-fed C57Bl6 mice [2]; macroscopically evident, with marked UCP1 immunostaining): Increased
- food intake (HFD-fed C57Bl6 mice [2]; metabolic cages, P>0.05 vs vehicle, n=8): 13.7 ± 0.45 g
- activity levels (HFD-fed C57Bl6 mice [2]; metabolic cages, after 12 days of treatment): without altering
- expression of UCP1 in BAT (HFD-fed C57Bl6 mice [2]; mouse, in vivo): enhanced
- weight gain ([3]; Ucp1+/+ mice, HFD, 30° C.): attenuated weight gain
- improvements in glucose tolerance ([3]; Ucp1+/+ versus Ucp1-/- mice): entirely dependent on the expression of UCP1
- oxygen uptake and thermogenesis ([3]; challenged with CL-316,243, only Ucp1+/+ mice): increase

Compound: COc1cccc([C@H](O)C2CCN(CCc3ccc(F)cc3)CC2)c1OC [MDL-100907, volinanserin]
- 5-HT induced Ca2+ transients (5-HT2A): attenuated
- 5-HT induced decrease in UCP1 protein levels (UCP1; antagonist plus 5-HT): dose-dependently attenuated

Compound: COc1cc(CCNCc2ccccc2O)c(OC)cc1C#N [NBOH-2C-CN]
- Ca2+ levels (5-HT2A): increased
- Ucp1 mRNA (UCP1; brown adipocytes): inhibited
- UCP1 protein levels (UCP1; brown adipocytes, chronic treatment for NBOH-2C-CN): decreased

Compound: COc1cccc(CCc2ccccc2OCC(CN(C)C)OC(=O)CCC(=O)O)c1 (centres unmarked) [Sarpogrelate hydrochloride]
- 5-HT induced Ca2+ transients (5-HT2A): attenuated

Compound: COc1cc(Br)c(OC)c2c1[C@H](CN)C2 [TCB-2]
- Ca2+ levels (5-HT2A): increased

Compound: CC[C@@H](CO)NC(=O)[C@@H]1C=C2c3cccc4c3c(cn4C)C[C@H]2N(C)C1 [methysergide]
- effect of serotonin on isoproterenol-induced lipolysis (5-HT receptor): blocked

Compound: Fc1ccc([C@@H]2CCNC[C@H]2COc2ccc3c(c2)OCO3)cc1 [paroxetine]
- sensitivity of brown adipocytes to inhibition by 5-HT (UCP1; serotonin transporter inhibited with the SSRI): greater sensitivity
